Read-outs that look alike come from different tables or passages of the source.
Legend:
Test in all cases: biochemical
Set-up in all cases: 33PanQinase radiometric kinase activity assay, residual activity in % of control, contract lab Reaction Biology
[1] = target: AKT1 (Homo sapiens, UniProt P31749); settings: mean of intraexperimental duplicates, n = 1
Procedure: (§1) Kinase Screening was performed at Reaction Biology (Freiburg, Germany) by using the ^33PanQinase Assay.^[ [90] ^] Based on this knowledge, we commissioned a kinase screening by the firm Reaction Biology, targeting those kinases whose inhibition has shown an indirect effect on microtubules. In our selection, we included additional kinases that are known to be involved in centrosome amplification (PLK4^[ [82] ^]), centrosome clustering (CDK1/2,^[ [83] ^] PLK1^[ [84] ^]), spindle multipolarity (SRC^[ [85] ^]), microtubule dynamics (AKT1^[ [86] ^]), and LIMK1/2 activation (ROCK1^[ [87] ^]) or are crucial for the mitosis (BUB1B, NEK2/9, WEE1^[ [88] ^]). Nonetheless, 1(R) and 1(S) at 10 µM had almost no inhibitory effects on any of the chosen kinases (Table 4 ). Only Aurora A (mean residual activity for 1(R): 86%, 1(S): 98%) and ASK1 (mean residual activity for 1(R): 90%, 1(S): 117%) were slightly enantioselectively impacted. However, we theorize that those marginal inhibitions are not explanatory for the antiproliferative and morphological effects of 1(R) on cancer cells.

[2] = target: T1, AuroraB (Homo sapiens, UniProt Q96GD4); settings: mean of intraexperimental duplicates, n = 1; read-out: Residual activities [% of control] / 1(R) 10 µM
T1 construct: gene AURKB
Procedure: as §1

[3] = target: T2, AuroraC (Homo sapiens, UniProt Q9UQB9); settings: mean of intraexperimental duplicates, n = 1
T2 construct: gene AURKC
T2 sequence (Q9UQB9 1-309): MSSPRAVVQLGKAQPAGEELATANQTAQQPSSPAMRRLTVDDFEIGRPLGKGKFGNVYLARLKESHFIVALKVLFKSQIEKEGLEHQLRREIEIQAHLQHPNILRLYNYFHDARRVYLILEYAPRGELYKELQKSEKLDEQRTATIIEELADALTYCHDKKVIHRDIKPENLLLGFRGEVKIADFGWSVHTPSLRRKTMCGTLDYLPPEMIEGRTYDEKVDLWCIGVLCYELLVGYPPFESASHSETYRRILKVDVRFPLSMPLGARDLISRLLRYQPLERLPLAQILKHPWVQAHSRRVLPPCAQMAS
Procedure: as §1

[4] = target: BUB1B (Homo sapiens, UniProt O60566); settings: mean of intraexperimental duplicates, n = 1
Procedure: as §1

[5] = target: T3, CHK2 (Homo sapiens, UniProt O96017); settings: mean of intraexperimental duplicates, n = 1
T3 construct: gene CHEK2
Procedure: as §1

[6] = target: LIMK1 (Homo sapiens, UniProt P53667); settings: mean of intraexperimental duplicates, n = 1; read-out: Residual activities [% of control] / 1(R) 10 µM
Procedure: as §1

[7] = target: LIMK2 (Homo sapiens, UniProt P53671); settings: mean of intraexperimental duplicates, n = 1
Procedure: as §1

[8] = target: PLK1 (Homo sapiens, UniProt P53350); settings: mean of intraexperimental duplicates, n = 1
Procedure: as §1

[9] = target: SRC (Homo sapiens, UniProt P12931); settings: mean of intraexperimental duplicates, n = 1
Procedure: as §1

[10] = target: WEE1 (Homo sapiens, UniProt P30291); settings: mean of intraexperimental duplicates, n = 1
Procedure: as §1

[11] = read-out: Residual activities [% of control] / 1(R) 10 µM
[12] = read-out: Residual activities [% of control] / 1(S) 10 µM

T3 sequence (O96017 whole entry): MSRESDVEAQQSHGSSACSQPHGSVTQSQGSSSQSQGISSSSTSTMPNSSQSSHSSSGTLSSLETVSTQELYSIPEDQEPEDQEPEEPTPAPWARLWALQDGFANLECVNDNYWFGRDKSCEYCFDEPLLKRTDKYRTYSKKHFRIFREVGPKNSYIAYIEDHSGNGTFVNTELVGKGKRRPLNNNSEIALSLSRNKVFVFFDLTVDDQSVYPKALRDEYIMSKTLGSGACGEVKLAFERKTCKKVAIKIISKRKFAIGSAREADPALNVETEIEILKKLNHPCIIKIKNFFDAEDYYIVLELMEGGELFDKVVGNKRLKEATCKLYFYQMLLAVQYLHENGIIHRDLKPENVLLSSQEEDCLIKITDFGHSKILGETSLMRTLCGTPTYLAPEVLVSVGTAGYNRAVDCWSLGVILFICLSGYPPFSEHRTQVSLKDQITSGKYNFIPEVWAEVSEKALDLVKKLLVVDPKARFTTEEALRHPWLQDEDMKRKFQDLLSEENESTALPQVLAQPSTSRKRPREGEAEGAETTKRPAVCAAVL
Chain of SRC (P12931 whole entry): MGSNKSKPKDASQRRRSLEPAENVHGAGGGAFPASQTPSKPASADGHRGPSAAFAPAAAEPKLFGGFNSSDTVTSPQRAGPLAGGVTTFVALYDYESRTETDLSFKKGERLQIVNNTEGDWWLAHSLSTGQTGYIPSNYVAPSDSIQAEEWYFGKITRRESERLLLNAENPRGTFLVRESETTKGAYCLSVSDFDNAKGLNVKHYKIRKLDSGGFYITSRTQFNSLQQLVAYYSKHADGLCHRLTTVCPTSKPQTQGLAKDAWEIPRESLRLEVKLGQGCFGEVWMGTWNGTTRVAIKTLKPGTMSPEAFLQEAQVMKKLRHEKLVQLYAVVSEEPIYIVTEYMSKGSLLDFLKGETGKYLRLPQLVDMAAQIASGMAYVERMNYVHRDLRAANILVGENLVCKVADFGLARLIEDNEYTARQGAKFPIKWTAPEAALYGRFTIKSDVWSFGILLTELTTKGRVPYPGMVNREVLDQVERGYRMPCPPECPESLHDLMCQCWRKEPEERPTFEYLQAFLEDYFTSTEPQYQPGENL
Chain of AKT1 (P31749 whole entry): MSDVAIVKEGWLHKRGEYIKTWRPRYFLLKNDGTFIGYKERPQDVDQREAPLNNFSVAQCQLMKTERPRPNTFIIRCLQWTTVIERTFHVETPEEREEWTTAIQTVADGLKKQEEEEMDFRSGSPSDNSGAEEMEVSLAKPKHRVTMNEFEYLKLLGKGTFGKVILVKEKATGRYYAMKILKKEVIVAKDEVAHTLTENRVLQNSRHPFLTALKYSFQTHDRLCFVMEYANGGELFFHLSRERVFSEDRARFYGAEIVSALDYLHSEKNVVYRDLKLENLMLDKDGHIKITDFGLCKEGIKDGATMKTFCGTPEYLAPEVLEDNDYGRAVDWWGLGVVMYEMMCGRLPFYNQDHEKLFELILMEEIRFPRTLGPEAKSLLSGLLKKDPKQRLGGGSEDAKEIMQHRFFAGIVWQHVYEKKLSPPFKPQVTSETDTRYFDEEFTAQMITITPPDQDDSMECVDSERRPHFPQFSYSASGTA
Chain of BUB1B (O60566 whole entry): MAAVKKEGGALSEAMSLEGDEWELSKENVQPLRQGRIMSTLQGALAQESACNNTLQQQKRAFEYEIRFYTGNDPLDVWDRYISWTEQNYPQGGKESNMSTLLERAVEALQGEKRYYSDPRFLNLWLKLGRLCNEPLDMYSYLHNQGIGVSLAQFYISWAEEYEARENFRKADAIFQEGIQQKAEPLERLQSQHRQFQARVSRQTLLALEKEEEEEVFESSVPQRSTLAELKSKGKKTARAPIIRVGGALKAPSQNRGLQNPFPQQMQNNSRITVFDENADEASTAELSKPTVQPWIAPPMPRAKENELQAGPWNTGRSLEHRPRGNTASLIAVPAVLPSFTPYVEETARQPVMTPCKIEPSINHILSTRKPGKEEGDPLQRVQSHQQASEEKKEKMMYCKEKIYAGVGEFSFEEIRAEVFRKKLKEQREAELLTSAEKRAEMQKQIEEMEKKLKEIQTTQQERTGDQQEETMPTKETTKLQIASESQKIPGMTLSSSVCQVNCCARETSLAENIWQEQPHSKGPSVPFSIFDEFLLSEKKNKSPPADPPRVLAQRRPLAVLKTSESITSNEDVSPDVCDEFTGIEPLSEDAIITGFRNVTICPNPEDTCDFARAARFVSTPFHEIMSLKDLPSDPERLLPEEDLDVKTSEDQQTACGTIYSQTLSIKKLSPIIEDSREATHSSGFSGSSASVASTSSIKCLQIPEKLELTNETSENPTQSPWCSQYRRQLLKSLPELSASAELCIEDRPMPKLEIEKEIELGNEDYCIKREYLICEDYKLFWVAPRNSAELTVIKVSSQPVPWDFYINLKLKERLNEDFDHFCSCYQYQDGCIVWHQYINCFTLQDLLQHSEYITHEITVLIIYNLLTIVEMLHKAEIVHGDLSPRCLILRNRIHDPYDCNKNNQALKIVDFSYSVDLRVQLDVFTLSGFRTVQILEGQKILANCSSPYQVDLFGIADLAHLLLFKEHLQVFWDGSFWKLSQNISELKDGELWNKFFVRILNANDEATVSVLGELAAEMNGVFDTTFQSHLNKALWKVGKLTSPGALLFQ
Chain of WEE1 (P30291 whole entry): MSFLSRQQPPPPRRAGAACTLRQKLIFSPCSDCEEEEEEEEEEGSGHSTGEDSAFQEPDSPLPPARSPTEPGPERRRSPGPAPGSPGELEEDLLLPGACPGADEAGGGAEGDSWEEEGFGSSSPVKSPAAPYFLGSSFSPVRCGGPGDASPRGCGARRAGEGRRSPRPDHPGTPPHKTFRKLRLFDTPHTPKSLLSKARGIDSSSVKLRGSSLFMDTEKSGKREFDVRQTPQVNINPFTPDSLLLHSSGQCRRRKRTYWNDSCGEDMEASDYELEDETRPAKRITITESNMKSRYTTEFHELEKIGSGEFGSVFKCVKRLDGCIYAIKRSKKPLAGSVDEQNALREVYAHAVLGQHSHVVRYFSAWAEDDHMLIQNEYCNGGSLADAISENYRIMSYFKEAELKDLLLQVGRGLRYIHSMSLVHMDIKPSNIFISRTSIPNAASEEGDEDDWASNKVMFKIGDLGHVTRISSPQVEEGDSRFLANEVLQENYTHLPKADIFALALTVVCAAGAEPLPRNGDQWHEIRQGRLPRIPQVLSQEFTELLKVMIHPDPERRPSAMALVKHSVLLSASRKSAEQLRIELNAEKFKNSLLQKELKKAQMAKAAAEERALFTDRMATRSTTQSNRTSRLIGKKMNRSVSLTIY
Chain of LIMK2 (P53671 whole entry): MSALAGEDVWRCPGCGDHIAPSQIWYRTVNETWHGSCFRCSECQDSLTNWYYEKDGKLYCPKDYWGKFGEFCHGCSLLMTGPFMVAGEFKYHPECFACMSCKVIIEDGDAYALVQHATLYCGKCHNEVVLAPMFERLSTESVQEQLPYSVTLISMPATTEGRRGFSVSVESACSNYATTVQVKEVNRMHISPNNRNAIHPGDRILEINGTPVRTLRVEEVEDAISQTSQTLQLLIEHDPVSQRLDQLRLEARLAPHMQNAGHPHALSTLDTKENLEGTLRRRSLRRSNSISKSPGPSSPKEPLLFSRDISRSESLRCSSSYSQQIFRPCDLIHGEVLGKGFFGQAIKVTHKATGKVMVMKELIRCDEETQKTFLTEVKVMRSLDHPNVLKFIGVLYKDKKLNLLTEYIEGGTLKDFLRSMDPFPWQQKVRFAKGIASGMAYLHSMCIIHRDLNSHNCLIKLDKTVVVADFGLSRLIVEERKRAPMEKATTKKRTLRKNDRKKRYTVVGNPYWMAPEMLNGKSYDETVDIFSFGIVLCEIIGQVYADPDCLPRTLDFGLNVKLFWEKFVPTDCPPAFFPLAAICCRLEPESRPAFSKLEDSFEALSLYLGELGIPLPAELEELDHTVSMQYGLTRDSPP
Chain of PLK1 (P53350 whole entry): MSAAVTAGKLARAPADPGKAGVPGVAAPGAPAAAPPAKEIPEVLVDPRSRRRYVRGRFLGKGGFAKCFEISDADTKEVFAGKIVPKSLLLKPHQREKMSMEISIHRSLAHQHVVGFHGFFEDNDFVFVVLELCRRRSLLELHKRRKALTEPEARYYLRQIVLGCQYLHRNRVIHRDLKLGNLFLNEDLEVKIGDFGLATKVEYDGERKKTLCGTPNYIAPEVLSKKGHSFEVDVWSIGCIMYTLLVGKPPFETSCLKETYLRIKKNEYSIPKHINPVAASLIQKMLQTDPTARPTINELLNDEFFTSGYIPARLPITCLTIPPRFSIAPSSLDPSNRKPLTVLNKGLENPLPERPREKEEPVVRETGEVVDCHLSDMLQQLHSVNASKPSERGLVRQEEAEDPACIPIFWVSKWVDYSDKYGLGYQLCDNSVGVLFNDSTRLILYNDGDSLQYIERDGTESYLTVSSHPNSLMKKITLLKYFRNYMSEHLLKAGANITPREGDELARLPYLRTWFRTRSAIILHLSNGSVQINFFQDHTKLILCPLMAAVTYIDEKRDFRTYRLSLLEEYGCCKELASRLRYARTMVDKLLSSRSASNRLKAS
T1 sequence (Q96GD4 whole entry): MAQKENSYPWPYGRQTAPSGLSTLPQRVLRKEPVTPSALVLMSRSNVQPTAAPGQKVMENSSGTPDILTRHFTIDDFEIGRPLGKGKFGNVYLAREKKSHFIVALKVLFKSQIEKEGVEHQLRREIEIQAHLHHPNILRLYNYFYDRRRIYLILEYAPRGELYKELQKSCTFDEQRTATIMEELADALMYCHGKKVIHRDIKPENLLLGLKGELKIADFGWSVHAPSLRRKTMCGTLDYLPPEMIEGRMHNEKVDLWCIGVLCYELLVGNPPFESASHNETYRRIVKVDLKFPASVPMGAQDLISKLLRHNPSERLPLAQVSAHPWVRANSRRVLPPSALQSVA

remaining activity at 10 µM [1, 11] | remaining activity at 10 µM [2] | remaining activity at 10 µM [3, 11] | remaining activity at 10 µM [4, 11] | remaining activity at 10 µM [5, 11] | remaining activity at 10 µM [6] | remaining activity at 10 µM [7, 11] | remaining activity at 10 µM [8, 11] | remaining activity at 10 µM [9, 11] | remaining activity at 10 µM [10, 11] | remaining activity at 10 µM [1, 12] | remaining activity at 10 µM [3, 12] | remaining activity at 10 µM [4, 12] | remaining activity at 10 µM [5, 12] | remaining activity at 10 µM [7, 12] | remaining activity at 10 µM [8, 12] | remaining activity at 10 µM [9, 12] | remaining activity at 10 µM [10, 12] | Structure (SMILES)
99% | 101% | 101% | 118% | 97% | 103% | 106% | 95% | 99% | 99% | – | – | – | – | – | – | – | – | Nc1ccc2ccccc2c1-c1c(N)ccc2ccccc12 [1(R), (R)‐[1,1′‐binaphthalene]‐2,2′‐diamine]
– | – | – | – | – | – | – | – | – | – | 101% | 100% | 111% | 104% | 98% | 91% | 103% | 98% | Nc1ccc2ccccc2c1-c1c(N)ccc2ccccc12 [1(S), S‐BINAM]

— article PMC12503911, “Cytotoxicity of Atropisomeric [1,1′‐Binaphthalene]‐2,2′‐Diamines (BINAM) and Analogs in Human Cancer Cells: Enantioselectivity, Structure–Activity Relationships, and Mechanism” (Chemmedchem, 2025)
